In patent US20220332764A1, “T CELL EPITOPES OF HCMV AND USES OF THEREOF” (EBERHARD KARLS UNIVERSITÄT TÜBINGEN, priority 2019, published 2022):

System: PBMCs of healthy HCMV-seropositive donors
Assay: IFNγ ELISpot after 12 day stimulation (memory T-cell response)
Type: cell-based, human
Conditions: for % Positive donors (after 12 days of stimulation): IFNγ ELISpot, HLA-matched seropositive donors; for Positive donors as tested: positive / tested HLA-matched seropositive donors, positive: >10 spots/well and at least 3-fold negative control
Source text: PHA was used as positive control.

Sequence	% Positive donors (after 12 days of stimulation) [%]	Positive donors as tested
GVSSVTLLK (listed as Human cytomegalovirus) [SEQ ID NO: 73]	35.7	5/14
VPAAVYTTV (listed as Human cytomegalovirus) [SEQ ID NO: 93]	33.3	5/15
GSDALPAGLY (listed as Human cytomegalovirus) [SEQ ID NO: 60]	18.8	3/16
KLGGALQAK (listed as Human cytomegalovirus) [SEQ ID NO: 70]	40.0	6/15
EEATALGREL (listed as Human cytomegalovirus) [SEQ ID NO: 47]	10.0	1/10
FPAHDWPEV (listed as Human cytomegalovirus) [SEQ ID NO: 94]	13.3	2/15
RENAGVALY (listed as Human cytomegalovirus) [SEQ ID NO: 45]	19.1	4/21
LLDELGAVFGY (listed as Human cytomegalovirus) [SEQ ID NO: 62]	15.4	2/13
SESLVAKRY (listed as Human cytomegalovirus) [SEQ ID NO: 48]	10.0	1/10
VMKFKETSF (listed as Human cytomegalovirus) [SEQ ID NO: 81]	–	5/13
YTSRGALYLY (listed as Human cytomegalovirus) [SEQ ID NO: 58]	21.4	3/14
VTDYGNVAFKY (listed as Human cytomegalovirus) [SEQ ID NO: 61]	18.8	3/16
IPPPQIPFV (listed as Human cytomegalovirus) [SEQ ID NO: 90]	40.0	6/15
DLDFGDLLKY (listed as Human cytomegalovirus) [SEQ ID NO: 65]	12.5	2/16
FTDNVRFSV (listed as Human cytomegalovirus) [SEQ ID NO: 17]	7.8	1/13
TLINGVWVV (listed as Human cytomegalovirus) [SEQ ID NO: 12]	–	2/11
APNYRQVEL (listed as Human cytomegalovirus) [SEQ ID NO: 37]	16.7	2/12
TSETHFGNY (listed as Human cytomegalovirus) [SEQ ID NO: 59]	20.0	3/15
YSDRRDHVWSY (listed as Human cytomegalovirus) [SEQ ID NO: 66]	6.3	1/16
HLKLRPATF (listed as Human cytomegalovirus) [SEQ ID NO: 83]	23.1	3/13
SLYEANPEL (listed as Human cytomegalovirus) [SEQ ID NO: 10]	23.5	4/17
LENGVTHRF (listed as Human cytomegalovirus) [SEQ ID NO: 49]	7.1	1/14
FPDATVPATV (listed as Human cytomegalovirus) [SEQ ID NO: 96]	6.7	1/15
TILDKILNV (listed as Human cytomegalovirus) [SEQ ID NO: 11]	20.0	4/20
